From patent US20240391923A1, “METHIONINE ADENOSYLTRANSFERASE 2A INHIBITOR FOR TREATING MTAP DELETION-TYPE CANCER” (SUZHOU GENHOUSE BIO CO., LTD., priority 2022, published 2024)
Read-outs that look alike come from different tables or passages of the source.

Columns and labels:
[1] = biological target: MAT2A recombinant protein (Homo sapiens, UniProt P31153); assay: MAT2A inhibitory activity (malachite green colorimetric enzyme assay); type: biochemical
In short: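 Recombinant human MAT2A with L-methionine and ATP in 50 mM HEPES pH 7.5, 50 mM KCl, 10 mM MgCl2, 10 mM DTT, 60 min at room temperature. Phosphate released detected by malachite green reagent (15 min) at 630 nm. Ten-point 1:3 series from 1000 nM final; IC50 by variable-slope non-linear regression.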

[2] = Pharmacokinetic test in mice (IV and PO); type: in vivo; conditions: BALB/c mice; for AUC (in words) / half-life (T½) (in words): summary of Table 7; for AUC / clearance / bioavailability / half-life / Vd: mouse, plasma; for half-life: read-out: T½ (converted); for Vd: read-out: Vz
[3] = tested on: HCT116-MTAP-knockout (−/−) cell strain; assay: Tumor cell proliferation inhibition assay (CellTiter-Glo), HCT116-MTAP-knockout (-/-); type: cell-based; conditions: Homo sapiens, 120 h, 5-day treatment
Procedure: (§1) After the HCT116-MTAP-knockout (−/−) cell strain, the HCT116-MTAP wild-type(+/+)-cell strain, the DOHH-2 cell strain, or the Hut-78 cell strain was treated with the test compound for 5 days, the ATP level was measured using a CellTiter-Glo kit of Promega to evaluate the inhibition of the test compound against the growth of the tumor cell strain.
(§2) In the present application, the HCT116-MTAP-knockout (−/−) cell strain, the HCT116-MTAP wild-type (+/+)-cell strain, the DOHH-2 cell strain, or the Hut-78 cell strain was seeded into a 96-well cell culture plate at an appropriate cell density. After 24 h, the cells were treated using the test compounds diluted 1:3 fold at the highest concentration of 10 μM for 10 gradients, and a DMSO treatment group was set up separately. The cells were cultured in a 37° C./5% CO2 incubator for 5 days.

[4] = tested on: SDMA in human colon cancer cell line HCT116; assay: Cell symmetric dimethylarginine (SDMA) test, In-cell Western, HCT116 (MTAP wild-type); type: cell-based; conditions: Homo sapiens, HCT-116, 96 h
Source text: MAT2A catalyzes the reaction of L-methionine and ATP to generate SAM, inorganic phosphonic acid, and inorganic diphosphonic acid. SAM is an important methyl donor, and is a substrate of arginine methyltransferase 5 (PRMT5). PRMT5 catalyzes SDMA modification of multiple proteins within a cell. The intracellular SDMA modification level was detected by ICW (In-cell Western), and the inhibition of the test compound on the enzymatic activity of intracellular MAT2A was indirectly reflected.
In the present application, the human colon cancer cell line HCT116 and the corresponding HCT116-MTAP-knockout cell line were seeded into a 96-well cell culture plate at an appropriate cell density. After 24 h, the cells were treated using the test compounds diluted 1:4 fold at the highest concentration of 6 μM for 6 gradients, and a DMSO treatment group was set up separately. The cells were cultured in a 37° C./5% CO2 incubator for 4 days. To test the inhibitory activity of the test compounds against tumor cell SDMA, the medium was discarded, and the plate was washed 3 times with PBST. 4% paraformaldehyde was then used at room temperature for fixation for 20 min. The fixation solution was discarded, the plate was washed 3 times with PBST, and a special blocking solution was added to each well for blocking at room temperature for 2 h. The blocking solution was discarded. After the plate was washed 3 times with PBST, the plate was incubated with SDMA antibody at 4° C. overnight. The next day, the plate was washed 3 times with PBST. The secondary antibody and DRAQ5 were diluted to an appropriate concentration with the blocking solution, and incubated at room temperature for 2 h; the plate was washed 3 times with PBST, and the fluorescence signals at 700 nm and 800 nm were detected using a Li—COR Odyssey two-color near-infrared laser imager.
The data was then processed. After the corresponding background value was subtracted from each well, statistical analysis was performed on the 800 nm/700 nm ratio for each well, a sigmoidal dose-inhibition curve was plotted using a non-linear regression model, and IC50 values were fitted and calculated. Inhibition Rate (%)=(1−SDMA dose/SDMA DMSO control)*100. SDMA dose is the value of the drug treatment group, and SDMA DMSO control is the value of the DMSO control group.

[5] = tested on: SDMA in HCT116-MTAP-knockout cell line; assay: Cell symmetric dimethylarginine (SDMA) test, In-cell Western, HCT116-MTAP-knockout; type: cell-based; conditions: Homo sapiens, 96 h
[6] = tested on: HCT116-MTAP wild-type (+/+)-cell strain; assay: Tumor cell proliferation inhibition assay (CellTiter-Glo), HCT116-MTAP wild-type (+/+); type: cell-based; conditions: Homo sapiens, 120 h, 5-day treatment
Procedure: as §1, §2

[7] = IC50 score class, read-out: MAT2A Inhibition (score)
[8] = HCT116-MTAP-knockout (−/−) cells, IC50 score, read-out: Tumor cell 5-day relative growth inhibition (HCT116-MTAP−/−) (nM), score
[9] = HCT116-MTAP-knockout (−/−) cells, IC50 value, read-out: Tumor cell 5-day relative growth inhibition (HCT116-MTAP−/−)
[10] = IC50 score class, read-out: Cell 96 h SDMA Inhibition (HCT116-MTAP+/+) (score)
[11] = read-out: Cell 96 h SDMA inhibition (HCT116-MTAP+/+)
[12] = IC50 score class, read-out: Cell 96 h SDMA Inhibition (HCT116-MTAP−/−) (score)
[13] = read-out: Cell 96 h SDMA Inhibition (HCT116-MTAP−/−)
[14] = HCT116-MTAP wild-type (+/+) cells, IC50 score, read-out: Tumor cell 5-day relative growth inhibition (HCT116-MTAP+/+) (nM), score
[15] = HCT116-MTAP wild-type (+/+) cells, IC50 value, read-out: Tumor cell 5-day relative growth inhibition (HCT116-MTAP+/+)

Sequence of MAT2A recombinant protein (P31153 whole entry): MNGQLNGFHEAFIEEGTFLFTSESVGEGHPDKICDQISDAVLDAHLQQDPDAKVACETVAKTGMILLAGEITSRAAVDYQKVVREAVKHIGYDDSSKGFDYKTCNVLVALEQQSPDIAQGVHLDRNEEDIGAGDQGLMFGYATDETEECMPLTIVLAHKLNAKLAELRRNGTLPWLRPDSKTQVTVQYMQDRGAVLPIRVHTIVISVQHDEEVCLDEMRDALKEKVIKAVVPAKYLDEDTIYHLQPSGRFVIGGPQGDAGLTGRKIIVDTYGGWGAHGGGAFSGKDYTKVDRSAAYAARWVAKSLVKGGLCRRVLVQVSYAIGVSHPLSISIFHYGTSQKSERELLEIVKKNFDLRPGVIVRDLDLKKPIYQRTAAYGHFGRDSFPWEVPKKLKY

Row | IC50 [1, 7] | IC50 ([1]; read-out: MAT2A Inhibition) | AUC ([2]; IV 2 mg/kg) | clearance ([2]; IV 2 mg/kg) | bioavailability ([2]; IV 2 mg/kg, PO 10 mg/kg) | half-life ([2]; IV 2 mg/kg) | Vd ([2]; IV 2 mg/kg) | AUC ([2]; PO 10 mg/kg) | half-life ([2]; PO 10 mg/kg) | IC50 [3, 8] | IC50 [3, 9] | IC50 [4, 10] | IC50 [4, 11] | IC50 [5, 12] | IC50 [5, 13] | IC50 [6, 14] | IC50 [6, 15] | SMILES | further results
1 | < 100 nM | 11 nM | 200 µM·h | 0.3 mL/min/kg | 80% | 10.8 h | 0.3 L/kg | 807 µM·h | 18 h | < 500 nM | 242 nM | > 3000 nM | 7200 nM | < 200 nM | 110 nM | 500 to 2000 nM | 1100 nM | O=c1c2nn(C(F)F)cc2c2ccc(C(F)(F)F)nc2n1-c1cccc2[nH]ncc12 [Compound B245] | AUC (in words) [2]: relatively high; half-life (T½) (in words) [2]: relatively long
2 | < 100 nM | 23.7 nM | 245 µM·h | 0.317 mL/min/kg | 126% | 5.73 h | 0.2 L/kg | 1470 µM·h | 5.79 h | < 500 nM | 382 nM |  |  | < 200 nM | 67 nM | 500 to 2000 nM | 1630 nM | Cc1c2c(nn1C(F)F)c(=O)n(-c1cccc3[nH]ncc13)c1nc(C(F)(F)F)ccc21 [Compound B254] | AUC (in words) [2]: relatively high; half-life (T½) (in words) [2]: relatively long
3 | < 100 nM | 16.9 nM | 37.8 µM·h | 2.28 mL/min/kg | 175% | 5.28 h | 1 L/kg | 331 µM·h | 8.61 h | < 500 nM | 29.5 nM |  |  | < 200 nM | 28 nM | 500 to 2000 nM | 577 nM | [2H]C([2H])([2H])n1cc2c(n1)c(=O)n(-c1cccc3[nH]ncc13)c1nc(C(F)(F)F)ccc21 [Compound B256] | AUC (in words) [2]: relatively high; half-life (T½) (in words) [2]: relatively long
4 | < 100 nM | 9.3 nM |  |  |  |  |  |  |  | < 500 nM | 21 nM | 200 to 1000 nM | 687 nM | < 200 nM | 3.7 nM | < 500 nM | 173 nM | O=c1c2n[nH]cc2c2cc(F)c(Cl)cc2n1-c1cccc2[nH]ncc12 [Compound B263] | 
5 | < 100 nM | 81 nM |  |  |  |  |  |  |  | ≥ 2000 nM | 3650 nM | > 3000 nM | > 10000 nM | 1000 to 3000 nM | 1240 nM | ≥ 2000 nM | 5240 nM | CN1CCN(c2ccc(Cn3cc4c(n3)c(=O)n(-c3cccc5[nH]ncc35)c3cc(Cl)c(F)cc43)cn2)CC1 [Compound B268] | 
6 | < 100 nM | 9 nM |  |  |  |  |  |  |  | < 500 nM | 72.5 nM | 200 to 1000 nM | 240 nM | 200 to 1000 nM | 147 nM | ≥ 2000 nM | > 10000 nM | Cn1cc2c(n1)c(=O)n(-c1cccc3[nH]ncc13)c1nc(C(F)(F)F)c(F)cc21 [Compound B274] | 
7 | < 100 nM | 100 nM |  |  |  |  |  |  |  | < 500 nM | 284 nM | > 3000 nM | > 10000 nM | < 200 nM | 98.5 nM | 500 to 2000 nM | 550 nM | CN1CCN(c2nccc(Cn3cc4c(n3)c(=O)n(-c3cccc5[nH]ncc35)c3cc(Cl)c(F)cc43)n2)CC1 [Compound B333] | 
8 | < 100 nM | 12 nM |  |  |  |  |  |  |  | < 500 nM | 145 nM | > 3000 nM | > 10000 nM | < 200 nM | 18.7 nM | ≥ 2000 nM | 9700 nM | Cn1cnc2c(=O)n(-c3cccnc3C3CC3)c3cc(Cl)c(F)cc3c21 [Compound B336] | 
9 | < 100 nM | 26 nM |  |  |  |  |  |  |  | 500 to 2000 nM | 765 nM | > 3000 nM | > 10000 nM | < 200 nM | 10 nM | ≥ 2000 nM | > 10000 nM | Cn1cnc2c(=O)n(-c3cccnc3C(F)(F)F)c3cc(Cl)c(F)cc3c21 [Compound B351] | 
10 | < 100 nM | 9.6 nM |  |  |  |  |  |  |  | < 500 nM | 87 nM | > 3000 nM | > 10000 nM | < 200 nM | 6.2 nM | ≥ 2000 nM | > 10000 nM | Cn1cc2c(n1)c(=O)n(-c1cccnc1C1CC1)c1nc(C3CC3)c(F)cc21 [Compound B359] | 
11 | < 100 nM | 15 nM | 31.5 µM·h | 2.42 mL/min/kg | 65% | 6.4 h | 1.34 L/kg | 93.4 µM·h | 8 h | < 500 nM | 128 nM | > 3000 nM | > 10000 nM | < 200 nM | 12 nM | ≥ 2000 nM | > 10000 nM | O=c1c2nn(C(F)F)cc2c2cc(F)c(C3CC3)nc2n1-c1cccnc1C1CC1 [Compound B361] | 
12 | < 100 nM | 58 nM |  |  |  |  |  |  |  | ≥ 2000 nM | > 10000 nM | > 3000 nM | > 10000 nM | 200 to 1000 nM | 554 nM | ≥ 2000 nM | > 10000 nM | Cn1cc2c(n1)c(=O)n(-c1cccc3ccccc13)c1cc(Cl)c(F)cc21 [Compound B370] | 
13 | < 100 nM | 19 nM |  |  |  |  |  |  |  |  |  | > 3000 nM | > 10000 nM | < 200 nM | 26 nM |  |  | N#Cc1cc2c3c[nH]nc3c(=O)n(-c3cccc4[nH]ncc34)c2cc1Cl [Compound B394] | IC50 ([3]; HCT116-MTAP−/− cells, IC50 class score, read-out: Tumor cell 5-day relative growth inhibition (HCT116-MTAP−/−) (nM), score): < 500 nM; IC50 ([3]; HCT116-MTAP−/− cells, read-out: Tumor cell 5-day relative growth inhibition (HCT116-MTAP−/−)): 359 nM; IC50 ([6]; HCT116-MTAP+/+ cells, IC50 class score, read-out: Tumor cell 5-day relative growth inhibition (HCT116-MTAP+/+) (nM), score): ≥ 2000 nM; IC50 ([6]; HCT116-MTAP+/+ cells, read-out: Tumor cell 5-day relative growth inhibition (HCT116-MTAP+/+)): 6840 nM
